# Results published in patent publication US11214803B2, “Modulators of YAP1 expression” (Ionis Pharmaceuticals, Inc., priority 2019, dated 2022).
# Strand notation (5' to 3'): a small letter for the sugar, then the base; units joined by * are phosphorothioate-linked, units joined directly phosphodiester-linked; [ ] holds rarer units or linkages, { } end groups; capitals alone tell only the bases. e = 2'-O-(2-methoxyethyl) (MOE); k = constrained ethyl (cEt); [5mC] = 5-methylcytosine; d = 2'-deoxy (DNA); m = 2'-O-methyl
# Test system: Yap1 mRNA
# Test: Dose-dependent inhibition of human Yap1 in SNU-449 cells (Example 9, RTS36584)
# Type: cell-based
# Details: free uptake; for % UTC (Yap1 mRNA): approximately 48 hours; for IC50: linear regression on a log/linear plot
# Procedure, shortened: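 Read-out was Yap1 mRNA (primer-probe RTS36584) normalised to total RNA by RIBOGREEN, given as % of untreated cells, with IC50 fitted by linear regression of log/linear data. Oligonucleotides were dosed by free uptake to SNU-449 cells, 10,000/well, for ~48 h.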
Substance,% UTC (Yap1 mRNA) (31.3 nM) [% UTC],% UTC (Yap1 mRNA) (125.0 nM) [% UTC],% UTC (Yap1 mRNA) (500.0 nM) [% UTC],% UTC (Yap1 mRNA) (2000.00 nM) [% UTC],IC50 [µM]
1198424 (k[5mC]*dT*d[5mC]*dT*dT*dA*dT*dA*dT*dG*dG*kT*eT*kT*eT*kG; antisense) [compound 1198424],64,44,24,9,0.1
1198504 (kT*k[5mC]*dA*dG*dA*dT*dT*dT*dA*dG*dG*eA*kT*eG*k[5mC]*eA; antisense) [compound 1198504],77,46,27,24,0.1
1200860 (kT*kA*kA*dA*dG*mU*dG*dT*dA*dT*dG*dT*d[5mC]*kA*kG*kA; antisense) [compound 1200860],59,35,15,5,0.05
1198664 (kG*k[5mC]*dT*dT*dT*dG*dG*dA*dA*dG*dA*dT*k[5mC]*eT*kG*eA; antisense) [compound 1198664],52,33,14,5,< 0.03
1198557 (kA*kT*kA*dT*dT*dA*dG*dA*dG*dT*dA*dT*kG*kT*kG*eG; antisense) [compound 1198557],81,52,26,11,0.2
1198814 (kA*kG*dA*dG*dT*dA*dT*dG*dT*dG*dG*k[5mC]*eA*kA*eT*kA) [compound 1198814],63,25,6,3,0.04
1198353 (kA*kG*kT*dG*dT*dA*dT*dG*dT*d[5mC]*dA*dG*kA*eA*kG*eA; antisense) [compound 1198353],60,30,10,4,0.04
1198502 (kA*kG*dA*dT*dT*dT*dA*dG*dG*dA*dT*eG*k[5mC]*eA*kT*eG; antisense) [compound 1198502],76,50,29,15,0.2
"1198578 (GCTTTGGAAGATCTGA; modified gapmer, chemistry not fully specified) [compound 1198578]",73,45,25,12,0.1
1197177 (kA*kT*kT*dG*dT*d[5mC]*dT*d[5mC]*dA*dT*dG*d[5mC]*d[5mC]*kT*kT*kA; antisense) [compound 1197177],56,29,8,2,0.03
1198529 (kT*kT*dA*dA*dA*dG*dT*dG*dT*dA*dT*eG*kT*e[5mC]*kA*eG; antisense) [compound 1198529],86,69,37,16,0.3
1198202 (kG*kA*dA*dA*dT*dT*dG*dT*d[5mC]*dT*d[5mC]*eA*eT*eG*k[5mC]*k[5mC]; antisense) [compound 1198202],83,46,16,5,0.1
1198788 (kA*eA*kG*dT*dG*dT*dA*dT*dG*dT*d[5mC]*dA*eG*eA*kA*kG) [compound 1198788],64,30,7,2,0.1
1198500 (kA*kT*dT*dT*dA*dG*dG*dA*dT*dG*d[5mC]*eA*kT*eG*kG*eT; antisense) [compound 1198500],72,51,34,15,0.2
1198902 (kT*kT*dA*dG*dA*dG*dT*dA*dT*dG*dT*kG*dG*k[5mC]*dA*kA; antisense) [compound 1198902],74,46,22,10,0.1
1198895 (kG*kG*dA*dA*dA*dT*dT*dG*dT*d[5mC]*dT*k[5mC]*dA*kT*dG*k[5mC]; antisense) [compound 1198895],62,37,16,9,0.1
"1198423 (TCTTATATGGTTTTGT; all C 5-methyl, all phosphorothioate, sugars by position not given here; cEt/MOE mixed gapmer, notation at position 4 garbled) [compound 1198423]",58,35,15,6,0.05
1198818 (kT*kA*dT*dT*dA*dG*dA*dG*dT*dA*dT*kG*eT*kG*eG*k[5mC]) [compound 1198818],68,33,15,5,0.1
1197178 (kA*kA*kT*dT*dG*dT*d[5mC]*dT*d[5mC]*dA*dT*dG*d[5mC]*k[5mC]*kT*kT; antisense) [compound 1197178],64,36,14,4,0.1
1198624 (kA*k[5mC]*kT*dA*dA*dG*dT*dA*dA*dG*dG*dT*kT*kT*k[5mC]*e[5mC]; antisense) [compound 1198624],62,37,21,9,0.1
1198875 (kA*kA*dA*dG*dT*dG*dT*dA*dT*dG*dT*k[5mC]*eA*kG*eA*kA; antisense) [compound 1198875],61,23,4,1,0.04
1198347 (kG*kT*kA*dA*dT*dA*dT*dT*dG*d[5mC]*dA*dA*kT*e[5mC]*kT*eG) [compound 1198347],67,54,24,8,0.1
1198555 (kA*kT*kT*dA*dG*dA*dG*dT*dA*dT*dG*dT*kG*kG*k[5mC]*eA; antisense) [compound 1198555],73,40,19,9,0.1
